*1 amine or outer side, *2 acyl side, *3 side chain or, on linkers, in order; H or OH if unused. Where a SMILES comes first, the peptide text is derived from it. Bridges are numbered along the chain shown (N, C = ends). [ ]: non-standard residue; d: D form. X1 = O=C(O)CCCCCCCCCCCCCCCCCCC(=O)N[C@@H](CCCCNC(=O)COCCOCCNC(=O)COCCOCCNC(=O)CCC(=O)N(CCNC(=O)C[*:1])CCNC(=O)C[*:2])C(=O)O; Phe(2-F) = N[C@@H](Cc1ccccc1F)C(=O)O; Iva = CC[C@](C)(N)C(=O)O; Aib = CC(C)(N)C(=O)O
What was measured:
Format in all cases: cell-based
[1] = molecular target: T1, GCGR (Homo sapiens, UniProt P47871); test: CreLuc method (CRE-luciferase reporter), 293HEK/pGM-CREB-L-Luc/GCGR pool; conditions: 6 h incubation, read-out: EC50 (pM) for each receptor GCGR
T1 construct: expressed in transfected cells
T1 sequence (P47871 26-477, species assumed): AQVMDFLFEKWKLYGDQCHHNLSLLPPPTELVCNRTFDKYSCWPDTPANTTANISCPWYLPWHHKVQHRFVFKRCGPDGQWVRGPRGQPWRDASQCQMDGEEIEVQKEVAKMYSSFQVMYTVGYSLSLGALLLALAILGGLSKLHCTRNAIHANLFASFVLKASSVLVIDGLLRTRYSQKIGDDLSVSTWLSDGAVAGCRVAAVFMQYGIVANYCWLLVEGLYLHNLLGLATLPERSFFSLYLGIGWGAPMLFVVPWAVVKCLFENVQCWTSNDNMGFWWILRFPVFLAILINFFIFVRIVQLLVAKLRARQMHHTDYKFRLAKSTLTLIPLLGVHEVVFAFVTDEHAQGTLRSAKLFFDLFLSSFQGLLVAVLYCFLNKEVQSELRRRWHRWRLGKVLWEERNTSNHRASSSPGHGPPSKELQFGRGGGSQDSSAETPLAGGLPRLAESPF
In short: (§1)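 Stable HEK293 pools co-expressing each receptor with a CRE-luciferase reporter were plated at 20,000 cells/well in freestyle medium and treated with compound dilution series for 6 h at 37 °C. Luminescence was read with ONE-GLO to derive EC50.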

[2] = molecular target: T2, GLP-1R (Homo sapiens, UniProt P43220); test: CreLuc method (CRE-luciferase reporter), HEK293/pGM-CREB-L-Luc/GLP-1R pool; conditions: 6 h incubation, read-out: EC50 (pM) for each receptor GLP-1R
T2 construct: expressed in transfected cells
T2 sequence (P43220 24-463, species assumed): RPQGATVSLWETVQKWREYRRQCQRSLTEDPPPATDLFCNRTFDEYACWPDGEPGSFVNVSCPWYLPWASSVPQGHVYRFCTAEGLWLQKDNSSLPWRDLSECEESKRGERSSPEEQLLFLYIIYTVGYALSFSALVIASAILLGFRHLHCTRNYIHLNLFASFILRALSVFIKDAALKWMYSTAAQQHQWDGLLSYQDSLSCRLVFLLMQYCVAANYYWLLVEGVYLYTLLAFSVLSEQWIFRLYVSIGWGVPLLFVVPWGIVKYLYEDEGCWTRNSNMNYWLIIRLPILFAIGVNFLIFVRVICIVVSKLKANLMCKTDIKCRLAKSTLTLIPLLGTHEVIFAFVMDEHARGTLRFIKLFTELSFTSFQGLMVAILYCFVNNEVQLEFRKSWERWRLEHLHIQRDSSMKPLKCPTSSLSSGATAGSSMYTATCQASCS
In short: as §1

[3] = molecular target: T3, GIPR (Homo sapiens, UniProt P48546); test: cAMP method (HTRF cAMP detection kit), HEK293/pGM-CREB-L-Luc/GIP pool; conditions: read-out: EC50 (pM) for each receptor GIPR
T3 construct: expressed in transfected cells
T3 sequence (P48546 22-466): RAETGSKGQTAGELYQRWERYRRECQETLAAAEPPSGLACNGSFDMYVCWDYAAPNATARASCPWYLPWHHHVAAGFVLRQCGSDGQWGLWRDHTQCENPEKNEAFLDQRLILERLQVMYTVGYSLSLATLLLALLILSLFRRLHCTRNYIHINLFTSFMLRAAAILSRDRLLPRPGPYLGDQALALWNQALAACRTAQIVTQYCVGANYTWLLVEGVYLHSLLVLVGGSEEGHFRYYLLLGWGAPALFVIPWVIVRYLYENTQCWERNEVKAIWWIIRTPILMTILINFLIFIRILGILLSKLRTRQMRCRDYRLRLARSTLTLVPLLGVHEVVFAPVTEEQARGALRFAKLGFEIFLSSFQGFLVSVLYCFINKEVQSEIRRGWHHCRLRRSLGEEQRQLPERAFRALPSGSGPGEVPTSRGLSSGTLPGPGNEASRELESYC

[4] = molecular target: T3, GIPR; test: CreLuc method (CRE-luciferase reporter), HEK293/pGM-CREB-L-Luc/GIPR pool; conditions: 6 h incubation, read-out: EC50 (pM) for each receptor GIPR
In short: as §1

[5] = molecular target: T2, GLP-1R; test: cAMP method (HTRF cAMP detection kit), HEK293/pGM-CREB-L-Luc/GLP-1 pool; conditions: read-out: EC50 (pM) for each receptor GLP-1R
Description: 2. Insulinotropic analogues can bind to target receptors on the cell membrane, activate the receptors, and induce release. The activity of the test substance can be determined using the HTRF method with a cAMP detection kit. Therefore, the cAMP method can be used to detect the target peptide derivatives (or polypeptide derivatives, i.e., TG1-TG86) prepared in Example 1 and Example 2. […] The test cell line was selected, treated with cAMP-specific trypsin for digestion. 3 mL of serum-free DMEM culture medium was added, and the cells were pipetted, resuspended, and counted. 5 µL of IBMX (prepared with serum-free DMEM medium, 0.5 mM) and test cells (5 µL/7500 cells/well) were added in a 384-well plate sequentially. The plate was incubated at 37°C under 5% CO2 for 30 min, followed by the addition of cAMP-d2 (5 µL, 1x) and Anti-cAMP-Cryptate (5 µL, 1x). The mixture was kept at room temperature for 1 h, after which the HTRF value was measured using a chemiluminescent microplate reader, and the determination result was recorded. […] Table 4: EC50 values for target peptide derivatives

With `CC[C@H](C)[C@@H]1NC(=O)[C@H](Cc2ccccc2)NC(=O)[C@@H](NC(=O)C(C)(C)NC(=O)[C@H](CCC(N)=O)NC(=O)[C@H](C)NC(=O)[C@H](CCCCNC(C)=O)NC(=O)[C@H](CCCCN)NC(=O)[C@H](CC(=O)O)NC(=O)[C@H](CC(C)C)NC(=O)[C@](C)(CC)NC(=O)[C@@H](NC(=O)[C@H](CO)NC(=O)[C@H](Cc2ccc(O)cc2)NC(=O)[C@H](CC(=O)O)NC(=O)[C@H](CO)NC(=O)[C@@H](NC(=O)[C@H](Cc2ccccc2F)NC(=O)[C@@H](NC(=O)CNC(=O)[C@H](CCC(N)=O)NC(=O)C(C)(C)NC(=O)[C@@H](N)Cc2ccc(O)cc2)[C@@H](C)O)[C@@H](C)O)[C@@H](C)CC)CSCC(=O)NCCN(C(=O)CCC(=O)NCCOCCOCC(=O)NCCOCCOCC(=O)NCCCC[C@H](NC(=O)CCCCCCCCCCCCCCCCCCC(=O)O)C(=O)O)CCNC(=O)CSC[C@@H](C(=O)NCC(=O)NCC(=O)N2CCC[C@H]2C(=O)N[C@@H](CO)C(=O)N[C@@H](CO)C(=O)NCC(=O)N[C@@H](C)C(=O)N2CCC[C@H]2C(=O)N2CCC[C@H]2C(=O)N2CCC[C@H]2C(=O)N[C@@H](CO)C(N)=O)NC(=O)[C@H](CC(C)C)NC(=O)[C@H](CC(C)C)NC(=O)[C@H](Cc2ccc(O)cc2)NC(=O)[C@H](CCC(=O)O)NC1=O` [TG52] (H-Y[Aib]QGT[Phe(2-F)]TSDYSI[Iva]LDKK(Ac)AQ[Aib]CFIEYLLCGGPSSGAPPPS-NH2; linker 21-28 via X1) the EC50 [1] was 173 pM, the EC50 [2] was 112 pM and the EC50 [3] was 3.8 pM. It also gave an EC50 [4] of 18.9 pM and an EC50 [5] of 4.1 pM.
